Source: paper PMC9071491, “Fragment screening and structural analyses highlight the ATP-assisted ligand binding for inhibitor discovery against type 1 methionyl-tRNA synthetase” (Nucleic Acids Research, 2022)
Where two headings read alike, the source gives them in different places.

Columns and labels:
[1] = target: T1, SaMetRS (Staphylococcus aureus, UniProt P67578); test: isothermal titration calorimetry (ITC) assay; assay type: binding
T1 construct: full-length SaMetRS (SaMetRS-FL) (residues 1–657) was expressed and purified in the same manner; made in house; host or cells: E. coli BL21 (DE3)
Procedure: The affinities of ligands to SaMetRS were measured by using a MicroCal PEAQ-ITC microcalorimeter. […] The interval between two injections was 150 s. The disassociation constants (Kd) were determined by fitting the calorimetric data to a one-site binding model by using MicroCal PEAQ-ITC analysis software.

[2] = target: T1, SaMetRS; test: biochemical; assay type: binding
Procedure: Ligand binding usually stabilizes the protein during the thermal denaturation process, and a tighter binder causes a larger positive shift in the protein melting temperature (Tm) ([38]). The binding of ligands to SaMetRS was evaluated by the fluorescence-based thermal shift assay as described ([39]). Briefly, mixtures with a final volume of 20 μl that contained 4 μg of SaMetRS-FL, 4 × SYPRO orange fluorescence dye (Sigma-Aldrich) and different ligands (10 μM REP8839, 5 mM L-Met, 5 mM ATP, or 1 mM fragments) in TSA buffer (100 mM Tris pH 8.0, 150 mM NaCl) were prepared in 96-well plates. The mixtures were incubated at 25°C for 10 min and then heated from 25°C to 95°C at a rate of 1°C/min. The fluorescence intensity was recorded every 20 s by using a StepOnePlus Real-Time PCR instrument (Life Technologies). The melting curves, using the fluorescence signal as the ordinate and the temperature as the abscissa, were fitted by using StepOne™ software v2.3 to obtain the melting temperature (Tm) of the protein. Triplicate assays were performed, and the average Tm values were used. The thermal stabilization of SaMetRS that was caused by a ligand (a fragment, substrate or inhibitor) was termed ΔTm, and it was calculated by subtracting the Tm of SaMetRS without the ligand from the Tm of SaMetRS supplemented with the ligand as follows:
Fragment screening is a fast-growing strategy for designing drugs with novel scaffolds as well as for identifying new druggable sites ([51],[52]). A total of 1049 fragments or low molecular weight natural products were screened by using TSA to search for new binders to SaMetRS. Considering the potential beneficial effect of ATP on ligand binding to SaMetRS, a parallel experiment was carried out using SaMetRS, which was saturated with 5 mM ATP. Fragments were diluted to a final concentration of 1.0 mM. The Tm of apo or ATP-bound SaMetRS without adding fragments was used as a blank control, and REP8839 was used as a positive control. We considered fragments that could increase the Tm value of SaMetRS by more than 1.0°C (ΔTm > 1.0°C) as positive hits (Figure 4B).

[3] = target: T1, SaMetRS; test: pretransfer editing assay (malachite green); assay type: biochemical
Procedure: A pretransfer editing assay was employed to evaluate the enzymatic activity of MetRS and the inhibitory activity of fragments to this enzyme. MetRS uses ATP to misactivate the noncognate L-norleucine (L-Norleu) to produce norleucyl adenylate and pyrophosphate (PPi). Norleucyl adenylate was hydrolyzed in the active site through pretransfer editing, and PPi was hydrolyzed by pyrophosphatase (PPiase). The pretransfer editing activity of MetRS was evaluated by measuring phosphate ion (Pi) production using a malachite green assay ([40],[41]). The assays were performed in 80 μl reaction mixtures consisting of 160 nM SaMetRS-FL or SaMetRS-dC or HcMetRS-dN or HcMetRS-dN/C, 100 μM ATP, 20 mM L-Norleu and 50 μg/ml PPiase in reaction buffer (30 mM HEPES pH 7.5, 150 mM NaCl, 30 mM KCl, 40 mM MgCl2, 1 mM DTT) at room temperature ([42]). The pyrophosphates released from the pretransfer editing reaction were decomposed into phosphates by PPiase. Then, 20 μl of malachite green reagent (2.45 M sulfuric acid, 0.1% w/v malachite green, 1.5% w/v ammonium molybdate tetrahydrate, and 0.2% v/v Tween 20) was added to each reaction, and the absorbance at 620 nm was recorded using a Synergy H1 microplate reader.
To measure the inhibitory activity of compounds against SaMetRS, the reactions of an 80 μl mixture consisting of 160 nM SaMetRS-FL (or HcMetRS-dN), 100 μM ATP, 20 mM L-norleucine, 50 μg/ml PPiase and 1 mM fragment (or inhibitor at different concentrations) in reaction buffer were incubated at room temperature for 30 min. Then, 20 μl of malachite green reagent was added to each reaction, and absorbance at 620 nm was recorded. The absorbance at 620 nm of the reaction without adding a compound (fragment or inhibitor) was A1, the absorbance of the reaction without adding MetRS was A0, and the absorbance of the reaction with adding a compound (fragment or inhibitor) was AC. The inhibitory rates of compounds on enzyme activity = (A1 – AC)/(A1 – A0) ×100%. For compounds P80, P21 and REP8839, the inhibitory rates were measured at various concentrations, and the data were fitted in GraphPad Prism 8 using the ‘log[inhibitor] versus response’ equation to calculate the IC50 values.
The inhibitory rates of these fragments against SaMetRS were then tested by a pretransfer editing assay. In the assay, MetRS used ATP to misactivate noncognate L-norleucine (L-Norleu) to produce norleucyl adenylate and PPi. The norleucyl adenylate was then quickly hydrolyzed (or ‘edited’) by MetRS in a tRNA-independent manner ([53–55]). In addition, PPi is hydrolyzed by pyrophosphatase, and phosphate production reflects the activity of MetRS in L-Norleu misactivation and pretransfer editing.

[4] = target: T2, HcMetRS (Homo sapiens, UniProt P56192); test: tRNA-dependent ATP consumption assay; assay type: biochemical; conditions: HcMetRS-dN, even at high concentrations
T2 construct: a truncated HcMetRS without the N-terminal part (HcMetRS-dN) (residues 221–900); His6-SUMO (N, cleaved yes); made in house; host or cells: E. coli BL21 (DE3)
T2 sequence (P56192 221-900): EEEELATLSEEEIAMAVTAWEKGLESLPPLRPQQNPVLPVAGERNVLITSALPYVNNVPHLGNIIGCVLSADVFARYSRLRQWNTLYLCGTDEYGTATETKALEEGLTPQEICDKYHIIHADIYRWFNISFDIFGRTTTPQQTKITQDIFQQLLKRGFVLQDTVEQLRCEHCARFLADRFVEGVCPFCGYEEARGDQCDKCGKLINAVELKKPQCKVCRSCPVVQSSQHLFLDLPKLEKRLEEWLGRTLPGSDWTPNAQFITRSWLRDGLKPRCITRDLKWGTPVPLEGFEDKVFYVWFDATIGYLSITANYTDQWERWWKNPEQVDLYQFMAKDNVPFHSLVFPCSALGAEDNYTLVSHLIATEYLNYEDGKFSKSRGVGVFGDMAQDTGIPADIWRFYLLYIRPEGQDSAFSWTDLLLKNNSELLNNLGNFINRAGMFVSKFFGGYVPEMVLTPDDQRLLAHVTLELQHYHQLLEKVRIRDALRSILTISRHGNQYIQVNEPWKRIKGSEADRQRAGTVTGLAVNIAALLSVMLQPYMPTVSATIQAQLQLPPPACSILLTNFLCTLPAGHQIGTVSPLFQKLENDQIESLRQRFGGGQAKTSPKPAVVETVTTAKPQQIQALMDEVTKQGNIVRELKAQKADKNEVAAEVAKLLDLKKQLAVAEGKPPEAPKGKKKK
Procedure: (§1) The inhibitory activity of the compounds against the tRNA aminoacylation reaction of MetRS was evaluated by employing an ATP consumption assay ([43],[44]). In brief, 10 μl reactions consisting of 50 nM SaMetRS-FL or 100 nM HcMetRS-dN, 4 μM ATP, 500 μM L-Met, 0.5 mg/ml E. coli total tRNA in reaction buffer (30 mM HEPES pH 7.5, 150 mM NaCl, 30 mM KCl, 40 mM MgCl2, 0.1% BSA and 1 mM DTT) and compounds (P80, P21 and REP8839) at various concentrations were prepared and incubated at room temperature for 30 min. The reactions were then stopped by adding 10 μl of Kinase-Glo™ Reagent (Promega) and incubated at room temperature for 15 min. The luminescence, which reflects the concentration of the remaining ATP, was read on a Synergy H1 microplate reader (BioTek). The luminescence of the reaction without adding a compound was Lum1, the absorbance of the reaction without adding MetRS was Lum0, and the luminescence of the reaction with the added compound was LumC. The inhibitory rates of a compound on enzyme activity = (LumC – Lum1)/(Lum0 – Lum1) × 100%. The data were fitted in GraphPad Prism 8 with the ‘log[compound] versus response’ equation to calculate the IC50 values.

[5] = target: T1, SaMetRS; test: tRNA-dependent ATP consumption assay; assay type: biochemical
Procedure: as §1

[6] = read-out: ΔTm (°C) Tm(Frg)-Tm(apo)
[7] = read-out: ΔTm (°C) Tm(Frg+ATP)-Tm(ATP)

T1 sequence (P67578 whole entry, the tested form may be a part): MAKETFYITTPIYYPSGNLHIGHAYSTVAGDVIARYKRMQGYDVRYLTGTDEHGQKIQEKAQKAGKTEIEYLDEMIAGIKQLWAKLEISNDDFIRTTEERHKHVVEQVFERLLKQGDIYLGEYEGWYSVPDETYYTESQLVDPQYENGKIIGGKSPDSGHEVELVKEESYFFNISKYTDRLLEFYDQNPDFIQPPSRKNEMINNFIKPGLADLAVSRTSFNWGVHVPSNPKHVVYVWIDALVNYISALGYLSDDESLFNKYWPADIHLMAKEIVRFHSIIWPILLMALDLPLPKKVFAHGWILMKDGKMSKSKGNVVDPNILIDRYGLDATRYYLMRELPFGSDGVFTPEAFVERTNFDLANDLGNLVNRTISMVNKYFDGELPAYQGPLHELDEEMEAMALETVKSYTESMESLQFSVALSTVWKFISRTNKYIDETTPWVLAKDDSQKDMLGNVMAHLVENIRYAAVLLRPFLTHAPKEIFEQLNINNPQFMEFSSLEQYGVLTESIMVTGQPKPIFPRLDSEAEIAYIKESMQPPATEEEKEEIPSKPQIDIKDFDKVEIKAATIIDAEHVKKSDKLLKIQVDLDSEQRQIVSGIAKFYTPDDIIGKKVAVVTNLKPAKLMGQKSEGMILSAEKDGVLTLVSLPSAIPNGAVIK

| Compound | ΔTm at 1000 µM [2, 6] [°C] | ΔTm at 1000 µM [2, 7] [°C] | inhibition at 1000 µM ([3]; read-out: Inhibitory rate (%)) [%] | other results |
| --- | --- | --- | --- | --- |
| CC(C)(C)Sc1cccnc1N [T2-15] | 2.5 | 2.5 | 65.3 ± 3.1 | Kd ([1]; SaMetRS apo, without ATP, 25°C, read-out: Kd, fragment to SaMetRS alone): 78.7 ± 7.1 µM; Kd ([1]; SaMetRS preincubated with 5 mM ATP, 25°C, read-out: Kd, fragment to SaMetRS saturated with ATP): 54.6 ± 2.6 µM |
| O=[N+]([O-])c1ccc2[nH]ncc2c1 [B128] | 1.3 | 2.1 | 30.4 ± 1.9 | – |
| O=[N+]([O-])c1ccc(O)c(O)c1 [A6] | 1.1 | 1.2 | < 20 | – |
| N[C@@H]1C[C@@H]1c1ccccc1 [B54] | – | – | < 20 | – |
| CNC(=O)c1ccc2c(c1)nc(-c1ccc(Br)c(O)c1)n2C(CNC(=O)OCc1ccccc1)c1ccc(OC)c(OC)c1 (centres unmarked) [P21] | – | – | – | inhibition of HcMetRS [4]: did not significantly inhibit; IC50 ([5]; 50 nM SaMetRS-FL, 4 μM ATP, 500 μM L-Met, read-out: IC50, ATP consumption assay): 3110 ± 480 nM; IC50 [3]: 428 ± 53 nM |
| C=C(F)c1sc(CNCCCNc2cc(O)c3ccccc3n2)c(C)c1Br [REP8839, reference compound] | – | – | – | ΔTm at 10 µM [2, 6]: 11.8 °C; ΔTm at 10 µM [2, 7]: 17.5 °C; inhibition at 10 µM ([3]; read-out: Inhibitory rate (%)): > 99% |
| NCc1c[nH]c2ccccc12 [B63] | 0.8 | 1.7 | 38.2 ± 3.5 | – |
| NC1Cc2ccccc2C1 [M2-80] | -0.1 | 2.5 | < 20 | – |
| Clc1cn2ccsc2n1 [M3-146] | -0.1 | 1.8 | < 20 | – |
| Nc1nc2ccccc2[nH]1 [M1-68] | 0.1 | 1.3 | < 20 | – |
| CNC(=O)c1ccc2c(c1)nc(-c1ccc(Br)c(O)c1)n2C(CNC(=O)COc1ccccc1C(C)(C)C)c1ccc(OC)c(OC)c1 (centres unmarked) [P80] | – | – | – | inhibition of HcMetRS [4]: did not significantly inhibit; IC50 [5]: 223 ± 12.3 nM; IC50 [3]: 94.6 ± 6.7 nM |
| Nc1ncnc2c1ncn2[C@@H]1O[C@H](COP(=O)(O)OP(=O)(O)OP(=O)(O)O)[C@@H](O)[C@H]1O [ATP] | – | – | – | fold more potent Kd of ATP with M3-88 premixed versus apo protein ([1]; SaMetRS premixed with M3-88 vs apo): approximately 4 fold; Kd ([1]; apo protein, 25°C, read-out: Kd, ATP to SaMetRS): 52 ± 6.7 µM; Kd ([1]; read-out: Kd, ATP to SaMetRS saturated with M3-88, SaMetRS preincubated with 5 mM M3-88, 25°C): 14.1 ± 0.7 µM |
| NCCNc1cccc2ccccc12 [M2-293] | – | 1.3 | 67.3 ± 1.1 | – |
